Experiments:
AH-inoculated rats = test: Rat AH130 Ascites Hepatoma Model of Cancer Cachexia, AH-inoculated rats; format: in vivo, female Wistar rats
Protocol: Following the method of Busquets et al (Busquets S, et al: Cancer Res 64:6725-31, 2004), female Wistar rats were inoculated (Day 0) intra-peritoneally (i.p.) with 2×10^7 cells/animal of Yoshida AH-130 ascites hepatoma (AH) cells. Control animals were inoculated with an equivalent amount of sterile saline solution. […] The animals were sacrificed on Day 5. Upon sacrifice, wet weights of heart and gastrocnemius muscle were determined. Carcass (after gastrocnemius, heart, and ascites removal) weight was also determined upon sacrifice.
Treatment Group=Inoculation Type/Vehicle, or Treatment Group=Inoculation Type/F(x)R(y) where, Inoculation Type is either AH or Saline, F is formoterol fumarate, R is roxithromycin, and the parenthetical values are formoterol fumarate and roxithromycin doses (i.p. in mg/kg).

[1] = Solution osmolality of roxithromycin citrate solutions; format: physicochemical; settings: 25° C.
Protocol: The solutions were syringe-filtered and analyzed by HPLC for [roxithromycin]. Roxithromycin Potency was assayed by a reverse-phase HPLC method that meets the requirements of the European Pharmacopeia (EP) Monograph for roxithromycin. Solution pH values were determined per USP <791> and solution osmolality values were determined per USP <785>. Aqueous solubility limits were determined for roxithromycin as a function of buffer type (phosphate versus citrate), buffer concentration, pH, and added co-solvent (ethanol).

[2] = Aqueous stability of roxithromycin (% Purity by HPLC); format: physicochemical; settings: for Roxithromycin % Purity By Area Normalization: 2 mg/mL, 25° C.
Protocol: Roxithromycin stability was determined for 2 mg/mL [roxithromycin] at 5, 25, and 40° C. as a function of pH and buffer (citrate) concentration. Roxithromycin %Purity was determined by area normalization using a reverse-phase HPLC method that meets the requirements of the EP Monograph. Solution pH values were determined per USP <791>.

[3] = Exp 1 Group 4, AH, F 0, R 5 mg/kg i.p., Day 5, normalized to 100 g Day 5 Total Body Weight
[4] = Exp 4 Group 21, AH, F 0, R 50 mg/kg i.p., Day 5, sample weight normalized to 100 g Day 5 Total Body Weight
[5] = Experiment 4, AH/F(0)R(50) group

CC[C@H]1OC(=O)[C@H](C)[C@@H](O[C@H]2C[C@@](C)(OC)[C@@H](O)[C@H](C)O2)[C@H](C)[C@@H](O[C@@H]2O[C@H](C)C[C@H](N(C)C)[C@H]2O)[C@](C)(O)C[C@@H](C)/C(=N\OCOCCOC)[C@H](C)[C@@H](O)[C@]1(C)O [roxithromycin]
Carcass Weights Mean (AH-inoculated rats; [3]): 94.35 g | Gastrocnemius Weights Mean (AH-inoculated rats; [3]): 0.493 g | Heart Weights Mean (AH-inoculated rats; [3]): 0.320 g | Carcass Mean (AH-inoculated rats; [4]): 94.1 | Gastrocnemius Mean (AH-inoculated rats; [4]): 0.500 | Heart Mean (AH-inoculated rats; [4]): 0.338 | gastrocnemius muscle loss compared with AH/vehicle group (AH-inoculated rats; Experiment 1, AH/F(0)R(5) group): approximately the same amount | gastrocnemius muscle weights compared with AH/vehicle group (AH-inoculated rats; [5]): significantly larger | gastrocnemius weights compared with AH/F(1)R(0) group (AH-inoculated rats; [5]): essentially identical | gastrocnemius weights compared with AH/F(1)R(50) group (AH-inoculated rats; [5]): slightly less | muscle wasting associated with the AH rat model (AH-inoculated rats; summary of Experiments 1-4): prevents muscle wasting | preventing AH-induced gastrocnemius muscle loss, roxithromycin alone compared with formoterol fumarate alone (AH-inoculated rats; summary of Experiments 1-4): effective as formoterol fumarate alone | Solution Osmolaltiy ([1]; 20 mM citrate, pH 4): 43 mOsm/kG | Solution Osmolaltiy ([1]; 20 mM citrate, pH 5): 47 mOsm/kG | Solution Osmolaltiy ([1]; 20 mM citrate, pH 6): 57 mOsm/kG | Solution Osmolaltiy ([1]; 20 mM citrate, pH 7): 60 mOsm/kG | Solution Osmolaltiy ([1]; 50 mM citrate, pH 4): 110 mOsm/kG | Solution Osmolaltiy ([1]; 50 mM citrate, pH 5): 124 mOsm/kG | Solution Osmolaltiy ([1]; 50 mM citrate, pH 6): 139 mOsm/kG | Solution Osmolaltiy ([1]; 50 mM citrate, pH 7): 138 mOsm/kG | Solution Osmolaltiy ([1]; 100 mM citrate, pH 4): 203 mOsm/kG | Solution Osmolaltiy ([1]; 100 mM citrate, pH 5): 243 mOsm/kG | Solution Osmolaltiy ([1]; 100 mM citrate, pH 6): 260 mOsm/kG | Solution Osmolaltiy ([1]; 100 mM citrate, pH 7): 271 mOsm/kG | Solution Osmolaltiy ([1]; 200 mM citrate, pH 4): 366 mOsm/kG | Solution Osmolaltiy ([1]; 200 mM citrate, pH 5): 462 mOsm/kG | Solution Osmolaltiy ([1]; 200 mM citrate, pH 6): 521 mOsm/kG | Solution Osmolaltiy ([1]; 200 mM citrate, pH 7): 532 mOsm/kG | stability of aqueous formulation ([2]; 2 mg/mL roxithromycin, 20 mM citrate buffer at pH 6): satisfactory | Roxithromycin % Purity By Area Normalization ([2]; citrate pH 4, 20 mM, 0 mo): 81% | Roxithromycin % Purity By Area Normalization ([2]; citrate pH 4, 20 mM, 0.3 mo): 74% | Roxithromycin % Purity By Area Normalization ([2]; citrate pH 4, 20 mM, 0.5 mo): 70% | Roxithromycin % Purity By Area Normalization ([2]; citrate pH 4, 20 mM, 0.9 mo): 65% | Roxithromycin % Purity By Area Normalization ([2]; citrate pH 4, 20 mM, 1.5 mo): 56% | Roxithromycin % Purity By Area Normalization ([2]; citrate pH 4, 20 mM, 2.6 mo): 48% | Roxithromycin % Purity By Area Normalization ([2]; citrate pH 4, 20 mM, 5.3 mo): 28% | Roxithromycin % Purity By Area Normalization ([2]; citrate pH 4, 20 mM, 7.3 mo): 15% | Roxithromycin % Purity By Area Normalization ([2]; citrate pH 4, 50 mM, 0 mo): 78% | Roxithromycin % Purity By Area Normalization ([2]; citrate pH 4, 50 mM, 0.3 mo): 71% | Roxithromycin % Purity By Area Normalization ([2]; citrate pH 4, 50 mM, 0.5 mo): 65% | Roxithromycin % Purity By Area Normalization ([2]; citrate pH 4, 50 mM, 0.9 mo): 59% | Roxithromycin % Purity By Area Normalization ([2]; citrate pH 4, 50 mM, 1.5 mo): 47% | Roxithromycin % Purity By Area Normalization ([2]; citrate pH 4, 50 mM, 2.6 mo): 33% | Roxithromycin % Purity By Area Normalization ([2]; citrate pH 4, 50 mM, 5.3 mo): 15% | Roxithromycin % Purity By Area Normalization ([2]; citrate pH 4, 50 mM, 7.3 mo): 6% | Roxithromycin % Purity By Area Normalization ([2]; citrate pH 5, 20 mM, 0 mo): 96% | Roxithromycin % Purity By Area Normalization ([2]; citrate pH 5, 20 mM, 0.3 mo): 88% | Roxithromycin % Purity By Area Normalization ([2]; citrate pH 5, 20 mM, 0.5 mo): 84% | Roxithromycin % Purity By Area Normalization ([2]; citrate pH 5, 20 mM, 0.9 mo): 80% | Roxithromycin % Purity By Area Normalization ([2]; citrate pH 5, 20 mM, 1.5 mo): 77% | Roxithromycin % Purity By Area Normalization ([2]; citrate pH 5, 20 mM, 2.6 mo): 75% | Roxithromycin % Purity By Area Normalization ([2]; citrate pH 5, 20 mM, 5.3 mo): 75% | Roxithromycin % Purity By Area Normalization ([2]; citrate pH 5, 20 mM, 7.3 mo): 71% | Roxithromycin % Purity By Area Normalization ([2]; citrate pH 5, 50 mM, 0 mo): 92% | Roxithromycin % Purity By Area Normalization ([2]; citrate pH 5, 50 mM, 0.3 mo): 82% | Roxithromycin % Purity By Area Normalization ([2]; citrate pH 5, 50 mM, 0.5 mo): 78% | Roxithromycin % Purity By Area Normalization ([2]; citrate pH 5, 50 mM, 0.9 mo): 77% | Roxithromycin % Purity By Area Normalization ([2]; citrate pH 5, 50 mM, 1.5 mo): 74% | Roxithromycin % Purity By Area Normalization ([2]; citrate pH 5, 50 mM, 2.6 mo): 71% | Roxithromycin % Purity By Area Normalization ([2]; citrate pH 5, 50 mM, 5.3 mo): 67% | Roxithromycin % Purity By Area Normalization ([2]; citrate pH 5, 50 mM, 7.3 mo): 59% | Roxithromycin % Purity By Area Normalization ([2]; citrate pH 5, 100 mM, 0 mo): 90% | Roxithromycin % Purity By Area Normalization ([2]; citrate pH 5, 100 mM, 0.3 mo): 79% | Roxithromycin % Purity By Area Normalization ([2]; citrate pH 5, 100 mM, 0.5 mo): 76%

— US20070149465A1, “COMPOSITIONS AND METHODS FOR PREVENTION AND TREATMENT OF CACHEXIA” (priority 2005, published 2007)
